Test results taken from patent US9744177B2, “Treatment of male androgen deficiency symptoms or diseases with sex steroid precursor combined with SERM” (ENDORECHERCHE, INC., priority 2014, dated 2017).
Where a name gives a salt, the structure may show the parent alone. Read-outs that look alike come from different tables or passages of the source. Marks after values point to notes of the source that are not given here.

What was measured:
[1] = system: ovariectomized female rats; test: 26-week treatment of ovariectomized female rats: lumbar spine BMD, total fat, cholesterol, ALP (Example 3, experiment 2); format: in vivo, Sprague-Dawley rats; conditions: OVX rats, 26 weeks, serum
Procedure: Ten to twelve week-old female Sprague-Dawley rats (Crl:CD(SD)Br) (Charles River Laboratory, St-Constant, Canada) weighing approximately 220-270 g at start of treatment were used. The animals were acclimatized to the environmental conditions (temperature: 22±3° C.; humidity: 50±20%; 12-h light-12-h dark cycles, lights on at 07:15 h) for at least 1 week before starting the experiments. The animals were housed individually and were allowed free access to tap water and a pelleted certified rodent feed (Lab Diet 5002, Ralston Purina, St-Louis, Mo.). […]
(§1) After 3 months (experiment 1) or 26 weeks (experiment 2) of treatment, individual rats under Isoflurane anesthesia had their whole body skeleton and lumbar spine scanned using dual energy x-ray absorptiometry (DEXA; QDR 4500A, Hologic, Waltham, Mass.) and a Regional High Resolution Scan software. The bone mineral density (BMD) of the lumbar spine (vertebrae L2 to L4) and the total body composition (fat percentage) were determined.
After 3 months (experiment 1) or 26 weeks (experiment 2) of treatment, blood samples were collected at the jugular vein from overnight fasted animals (under Isoflurane anesthesia). […] Serum cholesterol levels and alkaline phospatase activity (ALP) were determined using the Boehringer Mannheim Diagnostic Hitachi 911 Analyzer (Boehringer Mannheim Diagnostic Laboratory Systems).
Data are expressed as means±SEM. […]

[2] = system: estrone-stimulated uterine weight; test: Antiestrogenic activity: estrone-stimulated uterine weight in ovariectomized mice; format: in vivo, BALB/c mice; conditions: OVX mice + estrone; any dose used (1, 3 or 10 μg)
Procedure: (§2) Female BALB/c mice (BALB/cAnNCrlBR) weighing 18-20 g were obtained from Charles-River, Inc. (St-Constant, Quebec, Canada) and housed 5 per cage in a temperature (23±1° C.)- and light (12 h light/day, lights on at 7:15)-controlled environment. The mice were fed rodent chow and tap water ad libitum. The animals were ovariectomized (OVX) under Isoflurane anesthesia via bilateral flank incisions and randomly assigned to groups of 10 animals. Ten mice were kept intact as controls.
(§3) In the second experiment (Table 4), TSE 424 was administered orally by gavage once daily at doses of 1, 3, 10 or 30 μg/animal for 9 days, starting 2 days after ovariectomy. In both experiments, to evaluate the antiestrogenic activity, treatment with estrone (E1, 0.06 μg, s.c. injection, twice daily) was started 5 days post-ovariectomy and was administered for a 6 day-period. Compounds were dissolved in ethanol (4% final concentration) and administered in 0.4% methylcellulose. Mice in the intact and OVX control groups received the vehicle alone (4% ETOH-0.4% methylcellulose) during the 9-day period. The animals were killed by exsanguination at the abdominal aorta on the 11th morning following ovariectomy. The uteri and vagina were rapidly dissected, weighed, and kept in 10% buffered formalin for further histologic examination.

ovariectomized mice = test: Estrogenic activity: uterine and vaginal weight in ovariectomized mice, compounds alone; format: in vivo, BALB/c mice; conditions: OVX mice, no estrone; daily oral 1 μg and 10 μg
Procedure: as §2, §3

[3] = system: biochemical parameters of bone metabolism; test: Treatment of rats with DHEA and EM-800 alone or in combination: biochemical parameters of bone metabolism, serum lipids; format: in vivo; conditions: rat; for effect on serum cholesterol / effect on serum triglycerides: 9 months, DHEA 10 mg percutaneously, EM-800 75 μg orally, once daily (FIG. 10)
Text: Data are expressed as the means±SEM. **: p<0.01 experimental versus respective control.
It is thus important to analyze the changes in biochemical parameters of bone metabolism induced by various compounds and treatments in order to gain a better knowledge of their action (Table 2).
It is particularly important to indicate that the combination of DHEA and acolbifene exerted unexpected beneficial effects on important biochemical parameters of bone metabolism. […] Moreover, no effect of DHEA could be detected on daily urinary calcium or phosphorus excretion (Luo, Sourla et al. 1997). EM-800 (prodrug of acolbifene free salt) decreased the urinary hydroxyproline/creatinine ratio by 48% while, similarly to DHEA, no effect of EM 800 (prodrug of acolbifene, free salt) was seen on urinary calcium or phosphorus excretion. EM-800, moreover, had no effect on serum alkaline phosphatase activity, a marker of bone formation while DHEA increased the value of the parameter by about 75% (Luo, Sourla et al. 1997).

ovariectomized rats = test: 12-month treatment of ovariectomized rats with DHEA alone or with Flutamide or EM-800: bone histomorphometry, bone markers, serum lipids; format: in vivo, rat; conditions: OVX rats
[4] = system: ovariectomized female rats; test: 5-week treatment of ovariectomized female rats with SERMs alone or with DHEA: BMD (Example 4); format: in vivo, Sprague-Dawley rats; conditions: OVX rats, 5 weeks; SERMs 2.5 mg/kg oral, DHEA 80 mg/kg topical
Procedure: (§4) Ten to twelve week-old female Sprague-Dawley rats (Crl:CD(SD)Br) (Charles River Laboratory, St-Constant, Canada) weighing approximately 220-270 g at start of treatment were used. The animals were acclimatized to the environmental conditions (temperature: 22±3° C.; humidity: 50±20%; 12-h light-12-h dark cycles, lights on at 07:15 h) for at least 1 week before starting the experiments. The animals were housed individually and were allowed free access to tap water and a pelleted certified rodent feed (Lab Diet 5002, Ralston Purina, St-Louis, Mo.). Experiments were conducted in an animal facility approved by the Canadian Council on Animal Care (CCAC) and the Association for Assessment and Accreditation of Laboratory Animal Care (AAALAC) in accordance with the CCAC Guide for Care and Use of Experimental Animals.
On Day 1 of the study, the animals of the appropriate groups were bilaterally ovariectomized (OVX) under isoflurane anesthesia. The DHEA was applied topically on the dorsal skin as a solution in 50% ethanol-50% propylene glycol while the tested SERMs were administered as suspension in 0.4% methylcellulose by oral gavage. Treatments were initiated on Day 2 of the study and were performed once daily during 5 weeks.
After 5 weeks of treatment, individual rats under Isoflurane anesthesia had their lumbar spine, femur and tibia scanned using dual energy x-ray absorptiometry (DEXA; QDR 4500A, Hologic, Waltham, Mass.) and a Regional High Resolution Scan software. The bone mineral density (BMD) of the lumbar spine (vertebrae L2 to L4), distal femoral metaphysis (DFM) and proximal tibial metaphysis (PTM) were determined.
Data are expressed as means±SEM. Statistical significance was determined according to the multiple-range test of Duncan-Kramer {Kramer, 1956 #37421.

[5] = 50 mg daily, 6 months, cited from earlier work
[6] = 6 months; cited from earlier work
[7] = system: ovariectomized female rats; test: 3-month treatment of ovariectomized female rats: lumbar spine BMD, total fat, cholesterol, ALP (Example 3, experiment 1); format: in vivo, Sprague-Dawley rats; conditions: OVX rats, 3 months, serum
Procedure: as §4
On Day 1 of the study, the animals of the appropriate groups were bilaterally ovariectomized (OVX) under isoflurane anesthesia. The DHEA was applied topically on the dorsal skin as a solution in 50% ethanol-50% propylene glycol while the other tested compounds were administered as suspension in 0.4% methylcellulose by oral gavage. Treatments were initiated on Day 2 of the study and were performed once daily during 3 months.
as §1
After 3 months (experiment 1) or 26 weeks (experiment 2) of treatment, blood samples were collected at the jugular vein from overnight fasted animals (under Isoflurane anesthesia). Samples were processed for serum preparation and frozen at −80° C. until assay. Serum cholesterol levels and alkaline phospatase activity (ALP) were determined using the Boehringer Mannheim Diagnostic Hitachi 911 Analyzer (Boehringer Mannheim Diagnostic Laboratory Systems).
Data are expressed as means±SEM. Statistical significance was determined according to the multiple-range test of Duncan-Kramer (Kramer 1956).

[8] = system: human ZR-75-1 breast tumors; test: ZR-75-1 tumor growth in ovariectomized nude mice in absence of estrone (agonistic effects); conditions: no estrone, 200 μg daily, 161 days

Oc1ccc2c(c1)CC[C@H](c1ccccc1)[C@@H]2c1ccc(OCCN2CCCC2)cc1 (racemic) [lasofoxifene, (−)-cis-(5R,6S)-6-phenyl-5-[4-(2-pyrrolidin-1-ylethoxy)phenyl]-5,6,7,8-tetrahydronaphthalen-2-ol, D-(−)-tartrate salt]
CHOLESTEROL [1]: 0.60 ± 0.02 mmol/L

Oc1ccc2c(c1)CC[C@@H](c1ccccc1)[C@H]2c1ccc(OCCN2CCCC2)cc1 (single isomer, unassigned) [inactive enantiomer of lasofoxifene]
inhibitory effect on estrone-stimulated uterine weight [2]: no inhibitory effect | stimulatory effect on uterine weight (ovariectomized mice): no stimulatory effect | stimulatory effect on vaginal weight (ovariectomized mice): no stimulatory effect

C[C@]12CC[C@H](O)CC1=CC[C@@H]1[C@@H]2CC[C@]2(C)C(=O)CC[C@@H]12 [DHEA, dehydroepiandrosterone]
effect on serum cholesterol [3]: no effect | effect on serum triglycerides [3]: inhibitory effect | increase in trabecular bone number compared to ovariectomized controls (ovariectomized rats): 137% | reduction (inhibitory effect) of serum cholesterol (ovariectomized rats): 22% | trabecular bone number (ovariectomized rats): 1.27±0.1 per mm | trabecular bone volume of the tibia (ovariectomized rats): 11.9±0.6% | Alkaline phosphatase (ovariectomized rats; serum): 201±25 IU/L | CHOLESTEROL (ovariectomized rats; serum): 1.78 ± 0.16 mmol/L | Triglycerides (ovariectomized rats; serum): 0.8 ± 0.1 mmol/L | OH-proline/creatinine (ovariectomized rats; urine): 7.3±1.0 μmol/mmol | DISTAL FEMORAL METAPHYSIS (DFM) BMD [4]: 0.2934 ± 0.0046 g/cm^2 | DISTAL FEMORAL METAPHYSIS (DFM) Prevention of Bone Loss [4]: 71% | LUMBAR SPINE (L2-L4) BMD [4]: 0.2144 ± 0.0028 g/cm^2 | LUMBAR SPINE (L2-L4) Prevention of Bone Loss [4]: 44% | PROXIMAL TIBIAL METAPHYSIS (PFM) BMD [4]: 0.2672 ± 0.0041 g/cm^2 | PROXIMAL TIBIAL METAPHYSIS (PFM) Prevention of Bone Loss [4]: 42% | decrease of responsiveness of serum insulin to the glucose tolerance test [5]: 13% | improvement in the insulin sensitivity index [5]: 34% | decrease of abdominal subcutaneous fat ([5]; both women and men): 6% | decrease of abdominal visceral fat ([5]; men 65 to 78 years): 7.4% | decrease of abdominal visceral fat ([5]; women 65 to 78 years): 10.2% | decrease of total body fat mass [6]: 1.4 kg | increase of fat-free mass [6]: 0.9 kg

C[C@]12CC[C@@H]3c4ccc(O)cc4CC[C@H]3[C@@H]1CC[C@@H]2O [E2, 17β-estradiol]
ALP [7]: 59 ± 4 IU/L

CC1=C(c2ccc(OC(=O)C(C)(C)C)cc2)[C@H](c2ccc(OCCN3CCCCC3)cc2)Oc2cc(OC(=O)C(C)(C)C)ccc21 [EM-800, (S)-(+)-4-[7-(2,2-dimethyl-1-oxopropoxy)-4-methyl-2-[4-[2-(1-piperidinyl)-ethoxy]phenyl]-2H-1-benzopyran-3-yl]-phenyl 2,2-dimethylpropanoate]
effect on serum cholesterol [3]: decreases | effect on serum triglycerides [3]: decreases | URINE HP/Cr (hydroxyproline/creatinine ratio) ([3]; DHEA 10 mg, EM-800 75 μg): 6.81 ± 0.84** μmol/mmol

CC/C(=C(\c1ccccc1)c1ccc(/C=C/C(=O)O)cc1)c1ccccc1 [GW 5638]
ALP [7]: 72 ± 6 IU/L | effect of compound alone on ZR-75-1 tumor size compared to OVX control [8]: did not significantly change

CC/C(=C(/c1ccc(OCCN(C)C)cc1)c1cccc(O)c1)c1ccccc1 [droloxifene, (E)-3-[1-[4-[2-(Dimethylamino)ethoxy]phenyl]-2-phenyl-1-butenyl]phenol]
effect of compound alone on ZR-75-1 tumor size compared to OVX control [8]: did not significantly change

Cl.O=C(c1ccc(OCCN2CCCCC2)cc1)c1c(-c2ccc(O)cc2)sc2cc(O)ccc12 [raloxifene, [2-(4-hydroxyphenyl)-6-hydroxybenzo[b]thien-3-yl][4-[2-(1-piperidinyl)ethoxy]phenyl]-methanone hydrochloride]
effect of compound alone on ZR-75-1 tumor size compared to OVX control [8]: did not significantly change

CC/C(=C(\c1ccccc1)c1ccc(OCCN(C)C)cc1)c1ccccc1 [tamoxifen, (Z)-2-[4-(1,2-diphenyl-1-butenyl)phenoxy]-N,N-dimethylethanamine]
stimulatory effect on tumor growth (FIG. 15) ([8]; OVX nude mice): approximately 100%

CN(C)CCOc1ccc(/C(=C(/CCCl)c2ccccc2)c2ccccc2)cc1 [toremifene, (Z)-2-[4-(4-Chloro-1,2-diphenyl-1-butenyl)phenoxy]-N,N-dimethylethanamine]
average tumor size increase over baseline ([8]; OVX nude mice): 86%
